Experimental data from patent US8361984B2, “Small interfering RNAs and methods for prevention, inhibition and/or treatment of malignant progression of breast cancer” (Taipei Medical University, priority 2011, dated 2013).
Read-outs that look alike come from different tables or passages of the source.

What was measured:
MDA-MB-231 cells [1] = assay: MTT cell proliferation assay in MDA-MB-231 cells (parental, Sc, Si α5, Si α9); format: cell-based, human
Excerpt: A) Detection of nAChR subunits by reverse transcription-polymerase chain reaction (RT-PCR) in normal and cancerous human breast cell lines. MCF-7, MDA-MB-231, AU-565, MDA-MB-453, and BT-483 are transformed human breast cancer cells; MCF-10A and HBL-100 are considered normal human breast cells. The expression profiles of nAChR subunits in human SAEC (small airway epithelial), NHBE (normal human bronchial epithelial), and H157 (lung cancer) cells were also examined as described previously (West K A, Brognard J, Clark A S, et al. J Clin Invest 2003; 111(1):81-90). B) Relative mRNA expression of different nAChR subunits in normal and tumor human breast tissues isolated from 50 breast cancer patients. The cDNA was used for RT-PCR analysis and the experiment was repeated twice. Percent of occurrence is shown. C) Expression of the α5 and α9 nAChR subunits in stable MDA-MB-231 cell lines that express α9-nAChR (Si α9), α5-nAChR (Si α5), or scrambled (Sc) short interfering RNAs (siRNAs). […] Levels of α5 and α9 mRNAs were determined by RT-PCR, and levels of the α5 and α9 proteins by western blotting (WB). In each case, glyceraldehyde 3-phosphate dehydrogenase (GADPH) expression served as a control. D) Cell proliferation in Si α5, Sc, and parental MDA-MB-231 cells treated with dimethylsulfoxide DMSO vs nicotine, and in cells treated with DMSO vs the nicotine metabolite, 4-(methylnitrosamino)-1-(3-pyridyl)-1-butanone (NNK). Parental MDA-MB-231 cells (231) and 231 cells stably transformed the Si α5-, Sc-, or Si α9-siRNAs were treated with either nicotine (10 μM), NNK (1 μM), or vehicle alone in the absence of continued G418 selection afterwards. […] Cell proliferation was measured by the 3-(4,5-dimethylthiazol-2-yl)-2,5-diphenyltetrazolium (MTT) assay, in which a greater number of cells was reflected by an increased OD540 nm at the indicated time points. The experiment was repeated four times with duplicate samples. Data points represent the mean; error bars indicate 95% confidence intervals. The data were analyzed by nonparametric two-sided tests (Kruskal-Wallis and Mann-Whitney tests). […] E) Confocal microscopy of α9-nAChR expression in human breast cancer (MCF-7) cells. Immunofluorescence with a fluorescein isothiocyate-conjugated secondary antibody was used to detect the α9-nAChR, whereas a rhodamine-conjugated fluorescent antibody was used for caveolin-1 labeling. Localization of α9-nAChR (left, green), the membrane protein caveolin-1 (middle, red), and the merged image (right, yellow) are shown. Scale bar=25 μm. F) Dose-dependent binding of [^3H]-nicotine to the endogenous α9-nAChR receptor in human breast cancer MDA-MB-231 cells (left panel) and time-dependent [^3H]-nicotine binding in parental MDA-MB-231 cells (231), or in 231 cells stably transformed with α9-nAChR siRNA (Si α9) or scrambled control (Sc) siRNA (right panel). The experiment was repeated four times with duplicate samples. Data points represent the mean; error bars indicate the 95% confidence intervals. […] G) Analysis of α9-nicotinic acetylcholine receptor (α9-nAChR) expression in human breast carcinoma tissues. Determination of α9-nAChR mRNA levels using reverse transcription-polymerase chain reaction (RT-PCR). […] PCR was performed for 30 cycles.
(§1) Cell growth, proliferation, and viability were determined using the 3-(4,5-dimethylthiazol-2-yl)-2,5-diphenyltetrazolium (MTT) assay (Chou Y H, Ho Y S, Wu C C, et al. Food Chem Toxicol 2007; 45(8):1356-67.) Stock solutions of 10 mM nicotine and NNK (Chemsyn, Lenexa, Kans.) were prepared in dimethyl sulfoxide (DMSO). This assay was repeated four times with duplicate samples.

MDA-MB-231 cells [2] = assay: Soft agar growth assay of MDA-MB-231 cells; format: cell-based, human; conditions: parental MDA-MB-231 cells; nicotine 10 μM or NNK 1 μM
Excerpt: (§2) The experiment was repeated four times with duplicate samples.
The assay was repeated four times with duplicate samples.

[3] = test system: MDA-MB-231 tumor xenografts; assay: MDA-MB-231 α9-nAChR siRNA-expressing xenografts in NOD-SCID mice; format: in vivo, mouse
Excerpt: as §2

MCF-10A (DOX) cells [4] = assay: MTT cell proliferation assay in MCF-10A (DOX) cells; format: cell-based, human; conditions: nicotine 10 μM, NNK 1 μM; DOX+ vs DOX− cells
Protocol: Data points represent the mean; error bars indicate 95% confidence intervals. […] The experiment was repeated four times with duplicate samples. […] After transplantation, mice bearing tumors were treated with DOX (0.5 mg/mL) via drinking water for 14 days. After that, all mice bearing tumors (200 mm^3) were divided into either α9-nAChR mRNA expressing (DOX−) or non-expressing (DOX+) groups in the presence or absence of nicotine (10 mg/mL) in their drinking water (n=5, per group). […] Error bars represent 95% confidence intervals.
as §1

MCF-10A (DOX) cells [5] = assay: Long-term transformation of MCF-10A (DOX) cells, soft agar colony formation; format: cell-based, human; conditions: soft agar 21 days
Excerpt: Anchorage-independent growth of α9-nAChR overexpressing (MCF-10A-Nic (DOX) and MCF-10A-NNK (DOX)) and siRNA-expressing MDA MB-231 Si α5, Si α9, and Sc cells were examined in soft agar assays. The base layer consisted of 0.9% low-melting point SeaPlaque agarose (Sigma, St. Louis, Mo.) in complete MCF-10A culture medium. Soft agar was composed of 0.4% SeaPlaque agarose in complete DMEM and F12 culture medium was mixed with 1×10^4 cells and plated on top of the base layer in 60-mm-diameter culture dishes. […] Soft agar cultures were maintained at 37° C. for an additional 21 days and observed for the appearance of colonies with a Leica DMI 4000B Microscope Imaging System (Leica Microsystems, Wetzlar, Germany). The assay was repeated four times with duplicate samples.

[6] = test system: MCF-10A-Nic (DOX) xenografts; conditions: after 7 weeks; for tumor volume: with nicotine 10 mg/mL drinking water
Protocol: BALB/c-nu/nu mice (female, 4 weeks old, n=5 per group) purchased from National Science Council Animal Center, Taipei, were injected subcutaneously with MCF-10A-Nic (DOX) and vector control (5×10^6) cells. After transplantation, mice bearing tumors were treated with DOX (0.5 mg/mL) via drinking water for 14 days. After that, all mice bearing tumors (200 mm^3) were divided into either α9-nAChR mRNA expressing (DOX−) or non-induced (DOX+) groups, the latter of which could express the α9-nAChR mRNA at basal level. The mice were simultaneously treated with or without nicotine (10 mg/mL) in their drinking water for an additional 6 weeks. The xenografts were weighed and either snap-frozen in dry ice and stored at −80° C. for RNA and protein analysis or formalin-fixed and paraffin-embedded for immunohistochemical observation.
Examination was conducted as to whether induction of α9-nAChR in the presence or absence of nicotine stimulation in vivo would effectively promote tumor growth (FIG. 6). BALB/c-nu/nu mice (female, 4 weeks old) were injected subcutaneously with transformed MCF-10A-Nic (DOX) cells (5×10^6). After that, all mice bearing tumors (200 mm^3) were divided into either α9-nAChR mRNA expressing (DOX−) or non-expressing (DOX+) groups in the presence or absence of nicotine (10 mg/mL) in their drinking water (n=5, per group).

[7] = target: T1, endogenous α9-nAChR receptor in human breast cancer MDA-MB-231 cells (Homo sapiens, UniProt Q9UGM1); assay: [^3H]-nicotine equilibrium binding in MDA-MB-231 cells
T1 construct: endogenous α9-nAChR receptor in human breast cancer MDA-MB-231 cells; endogenous in cells; host or cells: MDA-MB-231 (parental, Sc and Si α9 clones)
Protocol: L-(−)-[N-methyl-^3H]-nicotine (71-75 Ci/mmol) was purchased from Dupont/NEN Research Products (Boston, Mass.), and free base nicotine (99% pure) was purchased from the Eastman Kodak Co. (Rochester, N.Y.). To study the uptake of [^3H]-nicotine in MDA-MB-231 cell monolayers (2×10^6 cells per well), cells were rinsed three times with a buffer containing 140 mM NaCl, 5.4 mM KCl, 1.8 mM CaCl2, 0.8 mM MgSO4, 5 mM glucose, and 25 mM Hepes (pH 7.4). Saturation binding studies were conducted for 2 hours at 37° C. in six-well plates, and used at least eight different concentrations of [^3H]-nicotine ranging from 1 to 15 nM. Time-dependent association kinetic studies in MDA-MB-231, Si α9, Sc cells were conducted using a single concentration of [^3H]-nicotine (7 nM) for treatments of 5, 10, 15, 30, 60 and 90 minutes. For determination of nonspecific binding, 10 μM unlabeled nicotine was pre-added to medium, after which cells were washed three times with ice-cold buffer and then exposed to [^3H]-nicotine. [^3H]-nicotine uptake was stopped by aspiration of the uptake medium and washing the wells three times with ice-cold buffer. The cells were lysed in 1 mL of 0.5% Triton X-100, and aliquots of the cell lysates were transferred to scintillation vials to determine the incorporated radioactivity by scintillation counting. The assay was repeated four times with duplicate samples.

[8] = nicotine-treated (10 mg/mL drinking water) mice with parental MDA-MB-231 tumors
[9] = Sc cells, day 11, nicotine 10 μM, NNK 1 μM
[10] = Si α5 cells, day 11, nicotine 10 μM, NNK 1 μM

T1 sequence (Q9UGM1 26-479 limits assumed): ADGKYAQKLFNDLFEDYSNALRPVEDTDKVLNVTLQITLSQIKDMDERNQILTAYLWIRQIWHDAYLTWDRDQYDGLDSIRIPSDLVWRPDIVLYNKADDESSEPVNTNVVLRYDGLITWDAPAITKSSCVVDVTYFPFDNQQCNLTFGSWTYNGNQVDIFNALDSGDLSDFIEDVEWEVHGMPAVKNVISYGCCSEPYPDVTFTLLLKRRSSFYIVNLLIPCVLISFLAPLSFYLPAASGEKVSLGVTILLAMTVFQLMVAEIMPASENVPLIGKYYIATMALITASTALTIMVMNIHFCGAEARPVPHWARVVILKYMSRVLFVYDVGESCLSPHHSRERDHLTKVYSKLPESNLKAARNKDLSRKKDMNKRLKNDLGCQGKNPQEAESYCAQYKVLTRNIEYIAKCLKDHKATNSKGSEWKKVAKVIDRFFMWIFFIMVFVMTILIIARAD

| Compound | difference in mean OD540 nm vs control (DMSO) (MDA-MB-231 cells [1]) | mean OD540 nm (MDA-MB-231 cells [1]) | no. of colonies in parental cells (MDA-MB-231 cells [2]) [colonies] | tumor weight in nicotine-fed mice ([3]; mice injected with MDA-MB-231 (231) or Sc cells (FIG. 3D)) | tumor volume at 6 weeks treatment [3, 8] [mm^3] | tumor weight at 6 weeks [3, 8] [g] | induction of cell proliferation (MCF-10A (DOX) cells [4]) | colonies formed in soft agar (MCF-10A (DOX) cells [5]; MCF-10A (DOX−) cells, nicotine 10 μM for 60 days) | difference in tumor volume, with vs without nicotine ([6]; +DOX) [mm^3] | tumor volume ([6]; +DOX) [mm^3] | difference in tumor volume, with vs without nicotine ([6]; −DOX) [mm^3] | tumor volume ([6]; −DOX) [mm^3] | difference in mean OD540 nm vs control (DMSO) (MDA-MB-231 cells [1]; [9]) | mean OD540 nm (MDA-MB-231 cells [1]; [9]) | difference in mean OD540 nm vs control (DMSO) (MDA-MB-231 cells [1]; [10]) | mean OD540 nm (MDA-MB-231 cells [1]; [10]) | colonies formed, DOX− compared with DOX+ cells (MCF-10A (DOX) cells [5]; NNK 1 μM for 60 days) | time at which maximum binding activity is attained ([7]; MDA-MB-231 cells, [^3H]-nicotine 7 nM) [min] | Kd ([7]; MDA-MB-231 cells, saturation binding 2 hours at 37° C., read-out: dissociation constant (Kd) of [^3H]-nicotine binding) [nM] | [^3H]-nicotine bound by parental cells ([7]; parental MDA-MB-231 cells) [DPM] |
| --- | --- | --- | --- | --- | --- | --- | --- | --- | --- | --- | --- | --- | --- | --- | --- | --- | --- | --- | --- | --- |
| CN1CCCC1c1cccnc1 (stereo not shown) [nicotine] | 0.58 | 1.35 | 341 | heavier | 2993.2 | 4.38 | induced cell proliferation was observed only in the MCF-10A (DOX+) cell line | six | 235.4 | 501.6 | 277.4 | 898.6 | – | – | – | – | – | – | – | – |
| CN(CCCC(=O)c1cccnc1)N=O [NNK, 4-(methylnitrosamino)-1-(3-pyridyl)-1-butanone] | – | – | 406 | – | – | – | induced cell proliferation was observed only in the MCF-10A (DOX+) cell line | – | – | – | – | – | 1.00 | 1.77 | 0.99 | 1.78 | More colonies | – | – | – |
| CN1CCCC1c1cccnc1 [[^3H]-nicotine, L-(−)-[N-methyl-^3H]-nicotine] | – | – | – | – | – | – | – | – | – | – | – | – | – | – | – | – | – | 60 | 3 | 489.7 |
